Results on 15 compounds are retold here after article PMC3224040 (ACS medicinal chemistry letters, 2011).

Data set [1] deals with D2 receptor (Rattus norvegicus, UniProt P61169). As to conditions: for Decrease in core body temperature: pretreatment of L-741,626 at 1 mg/kg; for Dose at onset of modest D2 agonist activity: yawning and hypothermia data.
Data set [2] has as its target dopamine D3 receptor (Rattus norvegicus, UniProt P19020). Nature of the data set: Yawning assay in rats. The settings on record: for High doses at which D2 agonist effects may be observed: antagonist interaction study in yawning assay.
In data set [3] the test system is D3 receptor. The settings on record: cited from earlier work; for Selectivity over the D2 receptor: D3 agonists, in vitro binding data; for Selectivity for D3 over D2: D3 antagonists.
The conditions of data set [4]: cited from earlier work.
The target of data set [5] is D3 receptor (Rattus norvegicus, UniProt P19020). As to conditions: rat brain binding, ratio of Ki values.
Chain of D3 receptor (Rattus norvegicus, UniProt P19020) (P19020 whole entry): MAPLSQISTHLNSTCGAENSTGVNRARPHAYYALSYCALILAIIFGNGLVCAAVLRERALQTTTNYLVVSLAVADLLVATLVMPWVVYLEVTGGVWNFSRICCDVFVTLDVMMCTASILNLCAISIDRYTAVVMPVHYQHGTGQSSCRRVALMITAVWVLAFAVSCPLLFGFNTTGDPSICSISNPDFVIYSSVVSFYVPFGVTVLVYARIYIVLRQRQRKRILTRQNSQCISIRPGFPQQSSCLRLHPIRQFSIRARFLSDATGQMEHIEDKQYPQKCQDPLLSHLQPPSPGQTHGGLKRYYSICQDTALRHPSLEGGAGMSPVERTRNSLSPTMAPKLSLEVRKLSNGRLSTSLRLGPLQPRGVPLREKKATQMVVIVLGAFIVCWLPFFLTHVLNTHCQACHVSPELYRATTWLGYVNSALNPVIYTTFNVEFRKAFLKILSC
Data set [6] is described as follows: Aqueous solubility. Format: physicochemical. The settings on record: aqueous medium (not further specified).
The target of data set [7] is human D1 receptor (Homo sapiens, UniProt P21728). Nature of the data set: Binding to cloned human D1 receptor. The settings on record: at 10,000 nM.
Chain of human D1 receptor (P21728 whole entry): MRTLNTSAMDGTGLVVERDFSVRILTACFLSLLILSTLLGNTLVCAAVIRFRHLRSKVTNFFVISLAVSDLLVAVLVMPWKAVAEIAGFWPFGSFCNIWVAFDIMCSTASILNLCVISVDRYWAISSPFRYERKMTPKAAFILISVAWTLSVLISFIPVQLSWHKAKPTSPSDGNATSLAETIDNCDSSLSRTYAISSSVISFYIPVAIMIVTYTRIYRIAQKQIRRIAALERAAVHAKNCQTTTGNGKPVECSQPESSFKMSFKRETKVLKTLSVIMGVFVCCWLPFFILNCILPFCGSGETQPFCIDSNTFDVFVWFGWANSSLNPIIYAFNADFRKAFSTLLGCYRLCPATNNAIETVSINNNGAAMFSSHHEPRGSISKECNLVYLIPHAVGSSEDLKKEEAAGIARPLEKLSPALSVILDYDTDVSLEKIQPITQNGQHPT

Like-named read-outs stand apart in the source and are kept apart here. Bounds are passed on as bounds.

Chain of D2 receptor (P61169 whole entry): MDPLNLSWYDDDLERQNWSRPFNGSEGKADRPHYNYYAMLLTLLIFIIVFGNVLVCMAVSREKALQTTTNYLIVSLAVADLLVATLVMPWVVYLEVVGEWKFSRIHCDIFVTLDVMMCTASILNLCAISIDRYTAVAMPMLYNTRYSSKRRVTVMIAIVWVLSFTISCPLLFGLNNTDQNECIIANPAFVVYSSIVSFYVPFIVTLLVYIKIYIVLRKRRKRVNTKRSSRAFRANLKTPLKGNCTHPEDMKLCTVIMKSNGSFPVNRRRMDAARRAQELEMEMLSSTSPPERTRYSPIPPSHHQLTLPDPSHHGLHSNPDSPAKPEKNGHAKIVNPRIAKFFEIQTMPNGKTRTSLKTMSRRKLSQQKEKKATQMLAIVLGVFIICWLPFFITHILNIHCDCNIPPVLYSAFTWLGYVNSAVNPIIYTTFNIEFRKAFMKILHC
Chain of dopamine D3 receptor (P19020 whole entry): as the sequence (P19020 whole entry) above

Take `CCCN[C@H]1CCc2nc(N)sc2C1` [Compound 1, Pramipexole]: the “Decrease in core body temperature” value in data set [1] (0.32 mg/kg) is “approximately 0.75 °C”. The “Effect on core body temperature” value in data set [1] (doses of 0.32 and 1.0 mg/kg) is listed as “significant decreases”. In addition, the “Dose at onset of modest D2 agonist activity” value in data set [1] is 0.32 mg/kg. Moreover, in data set [2], the “High doses at which D2 agonist effects may be observed” value was ~ 1.0 mg/kg. Consider `CCCN1CCC[C@@H]2Cc3n[nH]cc3C[C@H]21` [Compound 2, Quinpirole], for which the “Selectivity over the D2 receptor” value in data set [3] is listed as < 100 fold.

Take `CCCN(CCC)C1CCc2ccc(O)cc2C1` (centres unmarked) [Compound 3, 7-hydroxy dipropylaminotetralin]: the “Selectivity over the D2 receptor” value in data set [3] was < 100 fold. For `N#Cc1ccc2c(c1)CCN(CCC1CCC(NC(=O)c3ccnc4ccccc34)CC1)C2` (centres unmarked) [Compound 4], the “Selectivity for D3 over D2” value in data set [3] is ≤ 100 fold. Take `Cc1nc(-c2cccc(C(=O)NC3CCC(CCN4CCc5ccc(S(C)(=O)=O)cc5CC4)CC3)c2)no1` (centres unmarked) [Compound 5]: the “Selectivity for D3 over D2” value in data set [3] is ≤ 100 fold.

For `O=C(NCCCCN1CCN(c2cccc(Cl)c2Cl)CC1)c1ccc2c(c1)Cc1ccccc1-2` [Compound 6], in data set [3], the “Selectivity for D3 over D2” value is reported as ≤ 100 fold. Turning to `CCCN(CC[C@H]1CC[C@H](NC(=O)/C=C/c2ccccc2)CC1)[C@H]1CCc2nc(N)sc2C1` [Compound 10], the Aqueous solubility in data set [4] is > 50 mg/mL. With `CCCN(CC[C@H]1CC[C@H](NC(=O)c2ccc3ccccc3c2)CC1)[C@H]1CCc2nc(N)sc2C1` [Compound 11], the Aqueous solubility in data set [4] is > 50 mg/mL. Regarding `CCCN(CC[C@]1(O)CC[C@@H](NC(=O)c2ccc3ccccc3c2)CC1)[C@H]1CCc2nc(N)sc2C1` [Compound 12], the “Selectivity D1-like/D3” value in data set [5] is 7,373.

On to `CCCN(CC[C@]1(O)CC[C@H](NC(=O)c2ccc3ccccc3c2)CC1)[C@H]1CCc2nc(N)sc2C1` [Compound 13], for which the “Selectivity D1-like/D3” value in data set [5] is reported as 15,115. With `CCCN(CC[C@H]1C[C@H](NC(=O)c2ccc3ccccc3c2)C1)[C@H]1CCc2nc(N)sc2C1` [Compound 14], the “Selectivity D1-like/D3” value in data set [5] is recorded as 14,848. Turning to `CCCN(CC[C@H]1C[C@@H](NC(=O)c2ccc3ccccc3c2)C1)[C@H]1CCc2nc(N)sc2C1` [Compound 15], in data set [5], the “Selectivity D1-like/D3” value is 8,822. For `CCCN(CC[C@]1(O)C[C@@H](NC(=O)c2ccc3ccccc3c2)C1)[C@H]1CCc2nc(N)sc2C1` [Compound 16], the “Dose producing peak levels of yawning” value in data set [2] worked out at 1.0 mg/kg. Further, the solubility in data set [6] is > 100 mg/mL. Take `CCCN(CC[C@]1(O)C[C@H](NC(=O)c2ccc3ccccc3c2)C1)[C@H]1CCc2nc(N)sc2C1` [Compound 17]: the “Effect on core body temperature” value in data set [1] (3.2 mg/kg) was “no significant effect”. Besides, in data set [1] (10 mg/kg), the “Effect on core body temperature” value is listed as “significant but a modest effect” and the “Decrease in core body temperature” value is “approximately 0.75 °C”. Moreover, the “Dose at onset of modest D2 agonist activity” value in data set [1] amounted to 10 mg/kg. Moreover, in data set [7], the “Binding to human D1 receptor” value is given as “no detectable binding”. In addition, in data set [2], the “Dose producing peak levels of yawning” value is reported as 1.0 mg/kg and the “High doses at which D2 agonist effects may be observed” value is listed as ~ 10.0 mg/kg. The “Dose active at the D3 receptor (significant yawning activity)” value in data set [2] (lowest active dose) came out at 0.01 mg/kg. In addition, the solubility in data set [6] is > 100 mg/mL. On to `OC1(c2ccc(Cl)cc2)CCN(Cc2c[nH]c3ccccc23)CC1` [L-741,626], for which the “Effect of antagonist on hypothermia induced by compound 17” value in data set [1] (10 mg/kg compound 17) is on record as “did not have a significant effect”. Moreover, the “Effect of antagonist on hypothermia induced by pramipexole” value in data set [1] (in vivo, 0.32 mg/kg) is “significantly reversed”. The “Effect of antagonist on yawning induced by lower agonist doses” value in data set [2] (pramipexole 0.1 mg/kg and 17 1.0 mg/kg) is on record as “failed to modulate”.
